# Measurements: US12448352B2, “Beta adrenergic agonist and methods of using the same” (Curasen Therapeutics, Inc., priority 2019, dated 2025)
# Legend:
# [1] = test system: MDCK-MDR1 cells; test: MDCK-MDR1 permeability assay; type: in vitro ADME; parameters: A-B (Papp apical to basolateral) / B-A (Papp basolateral to apical): unit not given here
# Description: Preparation of MDCK-MDR1 Cells. Cell culture medium of was added to each well of the Transwell insert (50 μL) and reservoir (25 mL). The HTS transwell plates were then incubated at 37° C., 5% CO2 for 1 hour before cell seeding. MDCK-MDR1 cells were diluted to 1.56×10^6 cells/mL with culture medium and 50 μL of cell suspension were dispensed into the filter well of the 96-well HTS Transwell plate. Cells were cultivated for 4-8 days in a cell culture incubator at 37° C., 5% CO2, 95% relative humidity. Cell culture medium was replaced every other day, beginning no later than 24 hours after initial plating.
# Preparation of Stock Solutions. 10 mM stock solutions of test compounds were prepared in DMSO. The stock solutions of positive controls were prepared in DMSO at the concentration of 10 mM. Metoprolol, prazosin and imatinib were used as control compounds in this assay.
# Assessment of Cell Monolayer Integrity. Medium was removed from the reservoir and each Transwell insert and replaced with prewarmed fresh culture medium. Transepithelial electrical resistance (TEER) across the monolayer was measured using Millicell Epithelial Volt-Ohm measuring system (Millipore, USA). The Plate was returned to the incubator once the measurement was done. TEER value should be greater than 42 ohm·cm2, which indicates the well-qualified MDCK-MDR1 monolayer. The TEER value was calculated according to the following equation: TEER measurement (ohms)×Area of membrane (cm^2)=TEER value (ohm·cm^2)
# Assay Procedures. The MDCK-MDR1 plate was removed from the incubator and washed twice with pre-warmed HBSS (10 mM HEPES, pH 7.4), and then incubated at 37° C. for 30 minutes. The stock solutions of test compounds and controls were diluted in DMSO to get 1 mM solutions and then diluted with HBSS (10 mM HEPES, pH 7.4) to get 5 μM working solutions. The final concentration of DMSO in the incubation system was 0.5%. […]
# [2] = Monkey pharmacokinetic study; type: in vivo, male Non-Naïve Cynomolgus Monkeys; settings: PO 0.3 mg/kg
# Description: The rat pharmacokinetics studies of exemplary compounds 03-3, 03-5, and 03-115 were conducted with male SD rats. These rats were typically about 6-8 weeks old, weighing 200 g to 300 g. Animals were fasted overnight and free access to food 4 hours after dosing. A required volume of vehicle was added to reach the target concentration of the test article and vehicle component to prepare for the dosing. The dosing vehicle was PEG400 or 30% PEG400 in saline for IV, or 0.5% methylcellulose in water for PO. For IV dosing, the animals were administered intravenously via tail vein. For PO dosing, the animals were administered via oral gavage. After dosing, blood sample was collected (˜0.2 mL per time point) through jugular vein or heart puncture. Blood of each sample was transferred into plastic micro centrifuge tubes containing EDTA-K2. Collection tubes with blood samples and anticoagulant were inverted several times for proper mixing of the tube contents and then placed on wet ice. The blood samples were centrifuged at 2000 g for 5 minutes at 4° C. to obtain plasma which was stored in a freezer at −75±15° C. prior to analysis. Samples were analyzed using LC-MS/MS. WinNonlin were used for pharmacokinetic calculations.
# Monkey pharmacokinetics studies of exemplary compounds 03-3, 03-5, and 03-115 were conducted substantially similarly to the rat pharmacokinetic studies, instead using male Non-Naïve Cynomolgus Monkeys. Animals for PO studies were food fasted overnight prior to dosing and were fed approximately 2 hours after dosing. Animals for IV studies had free access to food and water. Blood samples were collected through venipuncture of peripheral veins except the dosing vein.
smiles,measurement,setting,value
Cc1ncccc1[C@@H](O)CNC(C)(C)C [Compound 03-115],A-B (Papp apical to basolateral),"[1]; MDCK-MDR1, 5 μM, 2 hours",6.96
same,B-A (Papp basolateral to apical),"[1]; MDCK-MDR1, 5 μM, 2 hours",10.98
same,Efflux Ratio,"[1]; MDCK-MDR1, Papp (B-A)/Papp (A-B)",1.58
same,AUCInf,[2],261 ng·h/mL
same,Cmax,[2],67 ng/mL
same,MRTInf_obs,[2],3.46 h
same,Tmax,[2],1.17 h
